# Legend:
# [1] = tested on: Salmon Alfa Virus (SAV); experiment: Mortality in Atlantic salmon fry following SAV challenge by cohabitation (Pancreas Disease); type: in vivo; settings: for survival compared to control diet fed fish / Relative Percent Survival (RPS): Study 2, SAV challenge; for end mortality compared to control: Study 3, all three SAV challenge trials
# Description: (§1) The first study evaluated dietary alpha-lipoic acid (LA) at 500 mg/kg compared to control basal diet fed fish. Pre-feeding experimental diets for ˜5 weeks, growing from ˜0.2 g to ˜0.5 g in 4 replicate tanks per diet. Water temperature at 12° C.±1° C. Min. 30 fish per diet (tank). Disease challenge by cohabitation with fish infected with Salmon Alfa Virus (SAV).
# (§2) This was intended to transmit the infection to the test groups leading to clinical Pancreas Disease (PD). The challenge lasted for 9.5 weeks (˜2 g), mortality recorded daily.
# The second study evaluated dietary alpha-lipoic acid at 3 doses 125, 250 and 500 mg/kg compared to control basal diet fed fish for resistance to virus disease (PD). The experiment was carried out as described for the first study.
# In this study three separate virus challenge trials evaluated dietary alpha-lipoic acid at 3 doses 250, 500 and 1000 mg/kg compared to control basal diet fed fish for resistance to virus disease (PD). The experiment was carried out as described for the first study.
# [2] = tested on: IPN; experiment: Mortality in Atlantic salmon following IPN challenge; type: in vivo; settings: A. salmon
# Description: as §1, §2
# The fourth study evaluated dietary alpha-lipoic acid at 3 doses 500, 750 and 1000 mg/kg compared to control basal diet fed fish for resistance to virus disease (IPN). The experiment was carried out as described for the first study.
# [3] = tested on: IPN; experiment: Performance (growth reduction) of Atlantic salmon following IPN challenge; type: in vivo
# Description: This study evaluated dietary alpha-lipoic acid at 3 doses 500, 750 and 1000 mg/kg compared to control basal diet fed fish for performance after disease (IPN) challenge in atlantic salmon and was carried out in succession of the fifth study by weighting the fish and comparing the challenged LA and control fed fish with the unchallenged control fed fish.
# [4] = tested on: phagocytes; experiment: Oxidative burst of phagocytes from rainbow trout fed LA; type: cell-based; settings: rainbow trout fed 125, 250 and 500 mg/kg for 4 weeks; any treatment group vs control
# Description: (§3) Rainbow trout were fed for 4 weeks with graded levels of LA (125, 250 and 500 mg/kg) compared to basal control diet fed fish. A range of functional immune assays of tissues/cells obtained at the end of the feeding period were conducted to investigate the possible mode of action observed in the disease challenge studies.
# The capacity of Oxidative burst of phagocytes was assayed to assess anti-oxidation or pro-oxidation activity, as widely reported for use of LA (Kutter et al., 2014).
# [5] = tested on: lymphocytes; experiment: Apoptosis of lymphocytes from rainbow trout fed LA; type: cell-based
# Description: as §3
# The apoptosis pathway (programmed cell death) was investigated by assaying the ability of lymphocytes to prevent apoptosis occurring following incubation with Campto, a chemical stimulator of apoptosis. […] This level of reduction in apoptosis is quite remarkable.
# [6] = Feed conversion ratio (FCR) in rainbow trout; type: in vivo; settings: for (Cumulative) Feed conversion ratio (FCR), Feed as fed basis (kg)/weight gain (kg), Mean: rainbow trout
# Description: This study evaluated dietary alpha-lipoic acid at 3 doses 250, 500 and 1000 mg/kg compared to control basal diet fed fish for feed conversion ratio. Rainbow trout with an initial weight around 50 g were fed for ˜6 weeks with graded levels of LA compared to basal control diet fed fish in 4 replicate tanks per diet with 50 fish per tank. The fish were fed automatically and daily with an excess of experimental diets with regard to feeding instructions for control basal diet and weighted every two weeks. Excess feed was removed daily.
# [7] = tested on: Noda Virus (VNN); experiment: Mortality in Sea Bass fry following VNN (Noda virus) challenge by cohabitation; type: in vivo
# Description: The seventh study evaluated dietary alpha-lipoic acid (LA) at 250, 500 and 750 mg/kg compared to control basal diet fed fish in Sea Bass fry. Pre-feeding experimental diets for 5-6 weeks, growing from ˜0.7 g to ˜1.4 g. Water temperature at 25° C. 133 fish per diet (tank). Disease challenge by cohabitation with fish infected with Noda Virus (VNN). This was intended to transmit the infection to the test groups. Mortality was recorded daily.
# [8] = tested on: white spot syndrome virus (WSSV); experiment: Mortality in shrimp following WSSV challenge; type: in vivo
# Description: The fourth study evaluated dietary alpha-lipoic acid at 650 mg/kg compared to control basal diet fed shrimp for resistance to white spot syndrome virus disease (WSSV). The experiment was carried out under standard conditions for shrimp. Pre-feeding experimental diets for ˜4 weeks. Mortality was recorded daily.
compound,measurement,setting,value
O=C(O)CCCCC1CCSS1 (stereo not drawn) [alpha-lipoic acid],relative percent survival (RPS) compared to control diet,"[1]; Study 1, 500 mg/kg feed, A. salmon fry, SAV challenge 9.5 weeks",63%
same,survival compared to control diet fed fish,[1]; 125 mg/kg,no observed effect
same,survival compared to control diet fed fish,[1]; 250 mg/kg,tendency for improved survival but this was not statistically significant
same,Relative Percent Survival (RPS),"[1]; 125 ppm in diet vs control, A. salmon fry",−17%
same,Relative Percent Survival (RPS),"[1]; 250 ppm in diet vs control, A. salmon fry",8%
same,Relative Percent Survival (RPS),"[1]; 500 ppm in diet vs control, A. salmon fry",34%
same,Relative Percent Survival (RPS),"[1]; 500 ppm in diet vs control, A. salmon fry, listed as LA",34%
same,end mortality compared to control,[1]; high dose 1000 mg/kg,significantly reduced
same,end mortality compared to control,[1]; medium dose 500 mg/kg,significantly reduced
same,RPS,[2]; 500 ppm in diet vs control,7.1%
same,RPS,"[2]; 500 ppm in diet vs control, listed as LA",7%
same,Mean Survival,[2]; 500 ppm in diet,62.0%
same,Mean mortality,[2]; 500 ppm in diet,38.0%
same,RPS,[2]; 750 ppm in diet vs control,27.6%
same,RPS,"[2]; 750 ppm in diet vs control, listed as LA",28%
same,Mean Survival,[2]; 750 ppm in diet,70.4%
same,Mean mortality,[2]; 750 ppm in diet,29.6%
same,RPS,[2]; 1000 ppm in diet vs control,−1.0%
same,RPS,"[2]; 1000 ppm in diet vs control, listed as LA",−1%
same,Mean Survival,[2]; 1000 ppm in diet,58.7%
same,Mean mortality,[2]; 1000 ppm in diet,41.3%
same,performance compared to challenged control diet fed fish,[3]; 500 mg/kg,performed better
same,performance compared to challenged control diet fed fish,[3]; 750 mg/kg,significantly better performance
same,performance compared to challenged control diet fed fish,[3]; 1000 mg/kg,did not perform significantly better
same,extracellular or intracellular oxidative burst of phagocytes,[4],no significant difference
same,basal apoptosis activity of lymphocytes,"[5]; no Campto used, LA treatment groups, not significant",trend for lower basal apoptosis activity
same,apoptotic cells (lymphocytes) after incubation with Campto,[5]; rainbow trout fed 500 mg/kg for 4 weeks,significant reduction
same,reduction of apoptotic cells (lymphocytes) after incubation with Campto,"[5]; rainbow trout fed graded levels 125, 250 and 500 mg/kg for 4 weeks",clear dose response
same,"(Cumulative) Feed conversion ratio (FCR), Feed as fed basis (kg)/weight gain (kg), Mean","[6]; AL 250, period 0-15 days",0.65
same,"(Cumulative) Feed conversion ratio (FCR), Feed as fed basis (kg)/weight gain (kg), Mean","[6]; AL 250, period 0-30 days",0.67
same,"(Cumulative) Feed conversion ratio (FCR), Feed as fed basis (kg)/weight gain (kg), Mean","[6]; AL 250, period 0-44 days",0.67
same,"(Cumulative) Feed conversion ratio (FCR), Feed as fed basis (kg)/weight gain (kg), Mean","[6]; AL 500, period 0-15 days",0.66
same,"(Cumulative) Feed conversion ratio (FCR), Feed as fed basis (kg)/weight gain (kg), Mean","[6]; AL 500, period 0-30 days",0.67
same,"(Cumulative) Feed conversion ratio (FCR), Feed as fed basis (kg)/weight gain (kg), Mean","[6]; AL 500, period 0-44 days",0.68
same,"(Cumulative) Feed conversion ratio (FCR), Feed as fed basis (kg)/weight gain (kg), Mean","[6]; AL 1000, period 0-15 days",0.65
same,"(Cumulative) Feed conversion ratio (FCR), Feed as fed basis (kg)/weight gain (kg), Mean","[6]; AL 1000, period 0-30 days",0.67
same,"(Cumulative) Feed conversion ratio (FCR), Feed as fed basis (kg)/weight gain (kg), Mean","[6]; AL 1000, period 0-44 days",0.68
same,feed conversion ratios compared to control diet fed fish,"[6]; rainbow trout fed 250, 500 and 1000 mg/kg for ~6 weeks",improved
same,Mean Survival,[7]; 250 ppm in diet,84.2%
same,Mean mortality,[7]; 250 ppm in diet,15.8%
same,RPS,[7]; 250 ppm in diet vs control,59.6%
same,RPS,"[7]; 250 ppm in diet vs control, listed as lipoic acid",60%
same,Mean Survival,[7]; 500 ppm in diet,86.7%
same,Mean mortality,[7]; 500 ppm in diet,13.3%
same,RPS,[7]; 500 ppm in diet vs control,66.0%
same,RPS,"[7]; 500 ppm in diet vs control, listed as lipoic acid",66%
same,Mean Survival,[7]; 750 ppm in diet,78.3%
same,Mean mortality,[7]; 750 ppm in diet,21.7%
same,RPS,[7]; 750 ppm in diet vs control,44.7%
same,RPS,"[7]; 750 ppm in diet vs control, listed as lipoic acid",45%
same,Mean Survival,[8]; 650 ppm in diet,30.0%
same,Mean mortality,[8]; 650 ppm in diet,70.0%
same,RPS,[8]; 650 ppm in diet vs control,8.7%
